Several values for one entry are separate records, joined by “and”; a condition that tells them apart may be missing. Identical values can stand only once.
Assays:
[1] = −30° C., white powder; cited from earlier work
[2] = Storage stability in deep-freezer (−20±5° C.), 6-oxo-PGF1alpha impurity content by HPLC; format: physicochemical; details: for 6-oxo-PGF1alpha content (HPLC): deep-freezer (−20 ± 5° C.), 4 mass % NaOH excess
Procedure: (§1) Based on these unexpected experimental results we modified our new technology, we dissolved the funnel-wet, crystalline epoprostenol sodium salt in water, to the aqueous solution we added 2M NaOH solution in such an amount that the product, after lyophilisation contains 4 mass % excess of sodium hydroxide. The stability of the epoprostenol Na prepared by this new method is excellent, it can be stored in deep-freezer (−20±5° C.) for at least 3 years.

[3] = Storage stability in refrigerator (5±3° C.), 6-oxo-PGF1alpha impurity content by HPLC; format: physicochemical; details: for 6-oxo-PGF1alpha content (HPLC): refrigerator (5 ± 3° C.), 4 mass % NaOH excess
Procedure: as §1, with “The” for “The stability of the”, “the” for “this”, “may” for “is excellent, it can”, “refrigerator (5±3°” for “deep-freezer (−20±5°”, “6 months (Table 3.).” for “3 years.”

[4] = Accelerated stability study of lyophilisates at room temperature in closed glass vessels, active ingredient content followed by HPLC; format: physicochemical; details: closed glass vessel
Procedure: We investigated the effect of the sodium hydroxide amount used for the salt formation on the stability of the acid-sensitive epoprostenol Na. For this purpose the excess alkali which may be present in the epoprostenol Na salt was removed with strongly acidic cation exchange DOWEX resin, to the aqueous solution of the salt not containing excess alkali, different amounts of sodium hydroxide were added and the obtained solutions were lyophilized. From the 1% aqueous lyophilisate solutions we measured the pH and started accelerated stability studies at room temperature, in closed glass vessels. The change of the active ingredient content of the stability samples was followed by HPLC after 0, 24, 48 and 144 hours. From the measured active ingredient contents decomposition rates of epoprostenol Na have been calculated (Table 1.).

[5] = pH of 1% aqueous lyophilisate solution; format: physicochemical
Procedure: For this purpose the excess alkali which may be present in the epoprostenol Na salt was removed with strongly acidic cation exchange DOWEX resin, to the aqueous solution of the salt not containing excess alkali, different amounts of sodium hydroxide were added and the obtained solutions were lyophilized. From the 1% aqueous lyophilisate solutions we measured the pH and started accelerated stability studies at room temperature, in closed glass vessels.

[6] = Storage stability in deep-freezer (−20±5° C.), 6-oxo-PGF1alpha impurity content by HPLC; format: physicochemical; details: 4-5-6% NaOH excesses compared
[7] = aqueous solution at physiological pH; cited from earlier work

CCCCC[C@H](O)/C=C/[C@@H]1[C@H]2C/C(=C/CCCC(=O)[O-])O[C@H]2C[C@H]1O.[Na+] [Epoprostenol Na, (5Z,9α,11α,13E,15S)-6,9-Epoxy-11,15-dihydroxyprosta-5,13-dien-1-acid sodium salt]
time lyophilisate remained stable [1]: at least two | 6-oxo-PGF1alpha content (HPLC) ([2]; month 0): 0.2 mass % | 6-oxo-PGF1alpha content (HPLC) ([2]; month 1): 0.2 mass % | 6-oxo-PGF1alpha content (HPLC) ([2]; month 3): 0.2 mass % | 6-oxo-PGF1alpha content (HPLC) ([2]; month 6): 0.2 mass % | 6-oxo-PGF1alpha content (HPLC) ([2]; month 9): 0.2 mass % | 6-oxo-PGF1alpha content (HPLC) ([2]; month 12): 0.2 mass % | 6-oxo-PGF1alpha content (HPLC) ([2]; month 18): 0.2 mass % | 6-oxo-PGF1alpha content (HPLC) ([2]; month 24): 0.2 mass % | 6-oxo-PGF1alpha content (HPLC) ([2]; month 36): 0.2 mass % | storage time (can be stored) ([2]; deep-freezer (−20±5° C.), lyophilisate with 4 mass % NaOH excess): at least 3 years | 6-oxo-PGF1alpha content (HPLC) ([3]; month 0): 0.2 mass % | 6-oxo-PGF1alpha content (HPLC) ([3]; month 1): 0.3 mass % | 6-oxo-PGF1alpha content (HPLC) ([3]; month 3): 0.4 mass % | 6-oxo-PGF1alpha content (HPLC) ([3]; month 6): 0.2 mass % | storage time (may be stored) ([3]; refrigerator (5±3° C.), lyophilisate with 4 mass % NaOH excess): at least 6 months | PGI2Na decomposition ([4]; 0.25 mass % NaOH added, sodium salt): 34.9 %/month and 34.6 %/month | PGI2Na decomposition ([4]; 2.5 mass % NaOH added, sodium salt): 10.9 %/month and 10.6 %/month | PGI2Na decomposition ([4]; 3.0 mass % NaOH added): 8.8 %/month | PGI2Na decomposition ([4]; 4.0 mass % NaOH added): 4.5 %/month | PGI2Na decomposition ([4]; 5.0 mass % NaOH added): 1.7 %/month | PGI2Na decomposition ([4]; 5.5 mass % NaOH added): 1.3 %/month | PGI2Na decomposition ([4]; 6.0 mass % NaOH added): 1.7 %/month | PGI2Na decomposition ([4]; 7.5 mass % NaOH added): 3.1 %/month | PGI2Na decomposition ([4]; 12.5 mass % NaOH added): 3.5 %/month | pH (1% aqueous solution) ([5]; lyophilisate with 0.25 mass % NaOH added, sodium salt): 9.98 and 10.14 | pH (1% aqueous solution) ([5]; lyophilisate with 2.5 mass % NaOH added): 11.64 | pH (1% aqueous solution) ([5]; lyophilisate with 3.0 mass % NaOH added): 11.70 | pH (1% aqueous solution) ([5]; lyophilisate with 4.0 mass % NaOH added): 11.78 | pH (1% aqueous solution) ([5]; lyophilisate with 5.0 mass % NaOH added): 11.86 | pH (1% aqueous solution) ([5]; lyophilisate with 5.5 mass % NaOH added): 11.90 | pH (1% aqueous solution) ([5]; lyophilisate with 6.0 mass % NaOH added): 11.92 | pH (1% aqueous solution) ([5]; lyophilisate with 7.5 mass % NaOH added): 12.00 | pH (1% aqueous solution) ([5]; lyophilisate with 12.5 mass % NaOH added): 12.15 | stability in the storage praxis [6]: equally good

CCCCC[C@H](O)/C=C/[C@@H]1[C@H]2C/C(=C/CCCC(=O)O)O[C@H]2C[C@H]1O [prostacyclin]
half-life [7]: 3 to 4 min
